The test has as its system BDF1 mice, colon carcinoma 38 sc, T/C %. As to the kind of experiment: NCI In Vivo Anticancer Drug Screen. Data for tumor model Colon Carcinoma 38 (subcutaneous) in B6D2F1 (BDF1) mice. Conditions: endpoint: median tumor weight (est.), higher = larger tumour. An outline of the steps: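 T/C readout: treated group (T) measurement over vehicle control group (C) measurement. Endpoint is survival or tumor size in mice bearing a transplanted tumor.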

The mark [1] stands for this setting: dose: 12.5 mg/kg/injection, schedule: Q07DX002 (ip), vehicle: saline.
The mark [2] stands for this setting: dose: 25.0 mg/kg/injection, schedule: Q07DX002 (ip), vehicle: saline with Tween-80.
The mark [3] stands for this setting: dose: 25.0 mg/kg/injection, schedule: Q07DX002 (ip), vehicle: saline.
Where [4] appears, read: dose: 50.0 mg/kg/injection, schedule: Q07DX002 (ip), vehicle: saline.
Setting [5] is: dose: 200.0 mg/kg/injection, schedule: Q07DX002 (ip), vehicle: saline.

Values joined by “and” are separate entries in the source; they are usually repeats but may differ in a detail not shown here. Equal values may be shown once. Inconclusive results are not listed.

For `CCCNC1=C(C)C(=O)C2=C(C1=O)[C@H](COC(N)=O)[C@]1(OC)[C@@H]3N[C@@H]3CN21`, the T/C is 72 % of control (dose: 0.78 mg/kg/injection, schedule: Q07DX002 (ip), vehicle: saline); 85 % of control (dose: 1.56 mg/kg/injection, schedule: Q07DX002 (ip), vehicle: saline); 84 % of control (dose: 3.12 mg/kg/injection, schedule: Q07DX002 (ip), vehicle: saline); 84 % of control (dose: 6.0 mg/kg/injection, schedule: Q07DX002 (ip), vehicle: suspension in saline); 25 % of control (dose: 6.25 mg/kg/injection, schedule: Q07DX002 (ip), vehicle: saline); 34 % of control (dose: 12.0 mg/kg/injection, schedule: Q07DX002 (ip), vehicle: suspension in saline). Also, the T/C under setting [1] is 6 % of control.
For the molecule `Cc1c2ccccc2cc2cccc[n+]12`, the T/C reads like this: (dose: 10.0 mg/kg/injection, schedule: Q07DX002 (ip), vehicle: saline) 87 % of control and 96 % of control; (dose: 20.0 mg/kg/injection, schedule: Q07DX002 (ip), vehicle: saline) 77 % of control; (dose: 40.0 mg/kg/injection, schedule: Q07DX002 (ip), vehicle: saline) 112 % of control and 94 % of control; (dose: 80.0 mg/kg/injection, schedule: Q07DX002 (ip), vehicle: saline) 109 % of control.
Regarding `C[C@H](N)C(=O)N[C@@H]1[C@H]2C(=C(O)C[C@@H](O)[C@@H]2O)C(=O)O[C@@H]1C`, the T/C was 65 % of control (dose: 150.0 mg/kg/injection, schedule: Q07DX002 (ip), vehicle: saline); 96 % of control (dose: 300.0 mg/kg/injection, schedule: Q07DX002 (ip), vehicle: saline); 90 % of control (dose: 1200.0 mg/kg/injection, schedule: Q07DX002 (ip), vehicle: saline); 96 % of control (dose: 2400.0 mg/kg/injection, schedule: Q07DX002 (ip), vehicle: saline).
In the case of `CCCCOCN(COCCCC)C12CC3CC(CC(C3)C1)C2`, the T/C runs as follows: under setting [2], 93 % of control; (dose: 50.0 mg/kg/injection, schedule: Q07DX002 (ip), vehicle: saline with Tween-80) 73 % of control; (dose: 100.0 mg/kg/injection, schedule: Q07DX002 (ip), vehicle: saline with Tween-80) 120 % of control; (dose: 200.0 mg/kg/injection, schedule: Q07DX002 (ip), vehicle: saline with Tween-80) 69 % of control.
As to `O=S(=O)(O)O.[NH-]C1CCCCC1[NH-].[Pt+2]` (centres undefined), the T/C runs as follows: (dose: 0.31 mg/kg/injection, schedule: Q07DX002 (ip), vehicle: dextrose) 56 % of control; (dose: 0.62 mg/kg/injection, schedule: Q07DX002 (ip), vehicle: dextrose) 82 % of control; (dose: 0.63 mg/kg/injection, schedule: Q07DX002 (ip), vehicle: dextrose) 80 % of control; (dose: 0.63 mg/kg/injection, schedule: Q07DX003 (ip), vehicle: dextrose) 51 % of control; (dose: 1.25 mg/kg/injection, schedule: Q07DX002 (ip), vehicle: dextrose) 41 % of control; (dose: 1.25 mg/kg/injection, schedule: Q07DX003 (ip), vehicle: dextrose) 76 % of control. The T/C is, setting by setting: (dose: 2.5 mg/kg/injection, schedule: Q07DX002 (ip), vehicle: dextrose) 19 % of control and 36 % of control; (dose: 5.0 mg/kg/injection, schedule: Q07DX002 (ip), vehicle: dextrose) 21 % of control; (dose: 5.0 mg/kg/injection, schedule: Q07DX003 (ip), vehicle: dextrose) 29 % of control; (dose: 10.0 mg/kg/injection, schedule: Q07DX002 (ip), vehicle: dextrose) 9 % of control.
As for `COc1cccc(-c2cc(=O)c3cccc(CC(=O)O)c3o2)c1`, the T/C under setting [1] is 88 % of control; the T/C under setting [3] was 97 % of control; the T/C under setting [4] was 110 % of control; the T/C (dose: 100.0 mg/kg/injection, schedule: Q07DX002 (ip), vehicle: saline) was 33 % of control.
Regarding `C[C@@]1(CO)[C@H](O)CC[C@@]2(C)[C@H]1CC[C@H]1C[C@@H]3C[C@@]12CC[C@@]3(O)COC(=O)CN`, the T/C is, setting by setting: (dose: 25.0 micrograms/kg/injection, schedule: Q07DX002 (ip), vehicle: saline + alcohol) 155 % of control; (dose: 100.0 micrograms/kg/injection, schedule: Q07DX002 (ip), vehicle: saline + alcohol) 107 % of control.
Consider `COc1cc([C@@H]2c3cc4c(cc3[C@@H](OC3OC5COC(C)OC5C(O)C3O)[C@H]3COC(=O)[C@H]23)OCO4)cc(OC)c1O` (some centres undefined), for which the T/C is 68 % of control (dose: 16.0 mg/kg/injection, schedule: Q07DX003 (ip), vehicle: clinical formulation); 83 % of control (dose: 32.0 mg/kg/injection, schedule: Q07DX003 (ip), vehicle: clinical formulation); 27 % of control (dose: 64.0 mg/kg/injection, schedule: Q07DX003 (ip), vehicle: clinical formulation).
Turning to `CCN1/C(=C/C=C/C=C\C=C\c2sc3ccc4ccccc4c3[n+]2CC)Sc2ccc3ccccc3c21`, the T/C by setting is: (dose: 2.5 mg/kg/injection, schedule: Q07DX002 (ip), vehicle: saline with Tween-80) 105 % of control; (dose: 5.0 mg/kg/injection, schedule: Q07DX002 (ip), vehicle: saline with Tween-80) 89 % of control; (dose: 10.0 mg/kg/injection, schedule: Q07DX002 (ip), vehicle: saline with Tween-80) 69 % of control; (dose: 20.0 mg/kg/injection, schedule: Q07DX002 (ip), vehicle: saline with Tween-80) 76 % of control.
For `CC1(O)CC23CC(O)C4(O)C(CC(O)C4(C)C)C(C)(O)C2CCC1C3O` (centres undefined), the T/C (dose: 0.25 mg/kg/injection, schedule: Q07DX002 (ip), vehicle: Klucel (hydroxypropylcellulose) (HPC)) was 102 % of control and the T/C (dose: 0.5 mg/kg/injection, schedule: Q07DX002 (ip), vehicle: Klucel (hydroxypropylcellulose) (HPC)) was 53 % of control.
In the case of `O=C(O)CP(=O)(O)O`, the T/C is 115 % of control and 96 % of control under setting [5]; 78 % of control and 80 % of control (dose: 800.0 mg/kg/injection, schedule: Q07DX002 (ip), vehicle: saline); 59 % of control (dose: 1600.0 mg/kg/injection, schedule: Q07DX002 (ip), vehicle: saline).
For the molecule `CC1=CC(=NN=c2cc(C)n([O-])c(C)c2)C=C(C)[N+]1=O`, the T/C under setting [1] is 82 % of control; the T/C under setting [3] is 108 % of control; the T/C (dose: 25.0 mg/kg/injection, schedule: Q07DX002 (ip), vehicle: suspension in saline) was 123 % of control; the T/C under setting [4] is 73 % of control; the T/C (dose: 100.0 mg/kg/injection, schedule: Q07DX002 (ip), vehicle: suspension in saline) is 97 % of control; the T/C under setting [5] is 99 % of control. Moreover, the T/C was 121 % of control (dose: 200.0 mg/kg/injection, schedule: Q07DX002 (ip), vehicle: suspension in saline); 90 % of control (dose: 400.0 mg/kg/injection, schedule: Q07DX002 (ip), vehicle: saline); 98 % of control (dose: 400.0 mg/kg/injection, schedule: Q07DX002 (ip), vehicle: suspension in saline).
As for `ClC1=C(Cl)C(Cl)=C(Cl)C1=Cc1ccccc1`, the T/C is, setting by setting: (dose: 0.78 mg/kg/injection, schedule: Q07DX002 (ip), vehicle: saline with Tween-80) 119 % of control; (dose: 1.56 mg/kg/injection, schedule: Q07DX002 (ip), vehicle: saline with Tween-80) 95 % of control; (dose: 6.25 mg/kg/injection, schedule: Q07DX002 (ip), vehicle: saline with Tween-80) 114 % of control; (dose: 12.5 mg/kg/injection, schedule: Q07DX002 (ip), vehicle: saline with Tween-80) 114 % of control; under setting [2], 58 % of control.
As to `CNNCc1ccc(C(=O)NC(C)C)cc1`, the T/C was 110 % of control (dose: 50.0 mg/kg/injection, schedule: Q07DX003 (ip), vehicle: saline); 123 % of control (dose: 100.0 mg/kg/injection, schedule: Q07DX003 (ip), vehicle: saline); 99 % of control (dose: 200.0 mg/kg/injection, schedule: Q07DX003 (ip), vehicle: saline); 35 % of control (dose: 400.0 mg/kg/injection, schedule: Q07DX003 (ip), vehicle: saline).
With `O=C(O)CC(=O)O.[NH-]CC[NH-].[Pt+2]`, the T/C by setting is: (dose: 14.1 mg/kg/injection, schedule: Q07DX002 (ip), vehicle: dextrose) 71 % of control and 85 % of control; (dose: 28.1 mg/kg/injection, schedule: Q07DX002 (ip), vehicle: dextrose) 69 % of control; (dose: 28.2 mg/kg/injection, schedule: Q07DX002 (ip), vehicle: dextrose) 71 % of control and 75 % of control; (dose: 56.2 mg/kg/injection, schedule: Q07DX002 (ip), vehicle: dextrose) 42 % of control.
